{"source": "paper PMC12391994", "about": "“Synthesis of a fac-Tricarbonylrhenium(I) Complex with Pyrithione, Its Physicochemical Characterization, and Assessment of Biological Effects” (ACS Omega, 2025)", "key": {"E. coli ATCC 25922": {"system": "E. coli ATCC 25922", "assay": "Antibacterial MIC assay, E. coli ATCC 25922", "format": "cell-based, Escherichia coli", "settings": "18 h, visual inspection", "experimental": "The antibacterial effect of the complex was tested against the Gram-negative strain Escherichia coli (E. coli) ATCC 25922, the Gram-positive reference strain Staphylococcus aureus (S. aureus) ATCC 25923, and the methicillin-resistant S. aureus MRSA ATCC 43300 strain. MRSA strains are responsible for several difficult-to-treat hospital-acquired infections.\nThe following bacterial strains were used in our experiments: Gram-positive S. aureus American Type Culture Collection (ATCC) 25923 as the methicillin-susceptible reference bacterial strain; methicillin-resistant S. aureus ATCC 43300 (MRSA) strain; E. coli ATCC 25922 as a Gram-negative bacterial strain.\nMIC values of the complexes were determined in 96-well plates based on the Clinical and Laboratory Standard Institute guidelines (CLSI guidelines). The stock solutions of the compound (dissolved in DMSO at 5 mM concentration) were diluted in 100 μL of Mueller Hinton Broth. Then, 10^–4 dilution of an overnight bacterial culture in 100 μL of medium was added to each well, with the exception of the medium control wells."}, "[1]": {"assay": "pH-dependent UV-vis spectrophotometry (solution speciation, pKa of aqua ligand)", "format": "physicochemical", "settings": "between pH 3 and 8, no spectral changes", "text": "However, at pH > ∼8, the spectrum changes considerably (Figure ).\nThe isosbestic point indicates a single equilibrium process, which is most likely deprotonation of the coordinated aqua ligand in complex 4a. This process was studied in our previous work for similar fac-[Re(CO)3] complexes formed with (N,N)-bearing ligands, and the calculated pK a (H2O) is around 8. […] Similar pK a values in the presence and absence of the chloride ions indicate a low chloride affinity of the aqua complex. Based on these values, the fraction of [Re(CO)3(pth)(H2O)] is 100% at pH = 7.4. The analogous half-sandwich complex [Ru(cym)(pth)(H2O)]^+ was also characterized by high solution stability, and a similarly high pK a value (10.34 (0.2 M KCl)).\nFor the solution studies, an Agilent Cary 3500 spectrophotometer was utilized to obtain UV–vis spectra in the wavelength range of 200–1100 nm. The path length ( l ) was 1 cm in all cases. The concentrations of the complex were between 10 and 60 μM. For investigation of the effect of chloride ions, the samples contained 60 μM complex and 0–7300 equiv of Cl^–. For HSA-containing samples, complex concentrations were 60 μM, and 0.5 equiv of biomolecule (or 6 equiv of MIM) was added for kinetic studies, respectively. Individual samples contained 0–34 μM HSA. The computer program HypSpec was used to obtain equilibrium constants."}, "[2]": {"biological_target": "T1, human serum albumin (HSA) (Homo sapiens, UniProt P02768)", "T1 construct": "purchased Sigma-Aldrich/Merck A8763", "T1 sequence (P02768 25-609)": "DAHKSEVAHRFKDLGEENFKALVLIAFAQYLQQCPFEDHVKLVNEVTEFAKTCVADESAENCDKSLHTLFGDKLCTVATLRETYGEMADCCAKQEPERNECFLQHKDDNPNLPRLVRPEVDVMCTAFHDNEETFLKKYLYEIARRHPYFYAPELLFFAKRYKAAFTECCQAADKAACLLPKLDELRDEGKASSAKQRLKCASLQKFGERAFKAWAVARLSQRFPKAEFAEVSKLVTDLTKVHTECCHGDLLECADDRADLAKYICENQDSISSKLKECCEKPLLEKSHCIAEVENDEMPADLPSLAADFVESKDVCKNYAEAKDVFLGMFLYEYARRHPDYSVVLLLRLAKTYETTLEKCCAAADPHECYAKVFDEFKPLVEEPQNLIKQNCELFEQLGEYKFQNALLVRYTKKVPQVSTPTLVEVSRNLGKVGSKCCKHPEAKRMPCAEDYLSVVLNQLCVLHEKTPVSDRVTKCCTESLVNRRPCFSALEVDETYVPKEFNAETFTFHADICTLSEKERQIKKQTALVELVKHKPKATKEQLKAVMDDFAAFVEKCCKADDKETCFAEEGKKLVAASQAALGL", "assay": "Tryptophan (Trp214) fluorescence quenching assay with HSA", "format": "binding", "settings": "1 μM HSA", "experimental": "HSA contains only one tryptophan residue (Trp214), which is located in a hydrophobic pocket in subdomain IIA of the protein. When a compound binds to HSA, it can affect the local environment of Trp214, leading to a decrease in its fluorescence intensity.\nFluorescence measurements were carried out on a Fluoromax (Horiba Jobin Yvon, Longjumeau, France) spectrofluorometer using a 1 cm × 1 cm quartz cuvette. Samples contained 1 μM HSA and the complex concentration was varied between 0 and 18 μM. The measurements were carried out as titration. The excitation wavelength was 295 for the Trp214 quenching measurements, and the determined quenching constant for HSA–complex species (1:1) was obtained using the computer program HypSpec. Calculations always were based on data obtained from at least two independent measurements. Self-absorbance and inner filter effect had to be considered, and corrections were made as was described in our former works. ,"}, "[3]": {"biological_target": "T2, cathepsin B (endopeptidase activity) (Homo sapiens, UniProt P07858)", "T2 construct": "made in house; host or cells: E. coli", "assay": "Relative inhibition of cathepsin B endopeptidase activity", "format": "biochemical", "settings": "50 μM; substrate Z-Arg-Arg-AMC; pH 6.0", "text": "(§1) Relative inhibition is expressed as a percentage of the decrease in reaction velocity in the presence of an inhibitor, in comparison to the reaction velocity in the absence of an inhibitor. For that purpose, the specific fluorogenic substrates Z-Arg-Arg-7-amido-4-methylcoumarin (Z-Arg-Arg-AMC) and 2-aminobenzoyl (Abz)-Gly-Ile-Val-Arg-Ala-Lys-(Dnp)-OH were used for cathepsin B endopeptidase and exopeptidase activities, respectively, and Z-Phe-Arg-AMC was used for cathepsin L and V activities.\n(§2) Human recombinant cathepsin B was expressed in E. coli, recombinant cathepsin V was expressed in Pichia pastoris, and human recombinant cathepsin L was expressed in E. coli, as reported. − For the determination of cathepsin B endopeptidase and exopeptidase activities, 100 mM phosphate buffer (pH 6.0) and 60 mM acetate buffer (pH 5.0) were used, respectively, and for the determination of cathepsin V and L activities, 100 mM acetate buffer (pH 5.5) was used. All buffers contained 0.1% PEG 8000 (Sigma-Aldrich, St. Louis, MO), 5 mM cysteine, and 1.5 mM EDTA. Prior to the assay, the enzymes were activated in the assay buffer for 5 min at 37 °C.\n(§3) To determine the effect of inhibitors on enzyme activity, the following substrates were used: Z-Arg-Arg-AMC (final concentration 5 μM, Z-RR-AMC; Bachem, Bubendorf, Switzerland) for cathepsin B endopeptidase activity, Abz-Gly-Ile-Val-Arg-Ala-Lys-(Dnp)-OH (final concentration 1 μM, Abz-GIVRAK-(Dnp)-OH; Bachem) for cathepsin B exopeptidase activity, and Z-Phe-Arg-AMC (final concentration 2 μM, Z-FR-AMC; Bachem) for cathepsin V and L activity. The substrate ([…]) at a final concentration and inhibitor ([…]) at a concentration of 50 μM were added to the wells of a black microplate. The reaction was then initiated by adding 90 μL of activated enzyme (final concentrations: 5 nM cathepsin B for its endopeptidase activity, 0.5 nM cathepsin B for its exopeptidase activity, 2.5 ng/mL for cathepsin V, and 0.02 nM for cathepsin L) in the assay buffer. The formation of fluorescent degradation products during the reaction was continuously monitored at 460 ± 10 nm with excitation at 380 ± 20 nm for Z-Arg-Arg-AMC and Z-Phe-Arg-AMC and at 420 ± 10 nm with excitation at 320 ± 20 nm for Abz-Gly-Ile-Val-Arg-Ala-Lys(Dnp)-OH at 37 °C on a Tecan Infinite M1000 (Mannedorf, Switzerland) spectrofluorometer. All assay mixtures contained 5% (v/v) DMSO. To prevent false-positive inhibition due to the formation of compound aggregates, 0.01% Triton X-100 was used. All measurements were performed in triplicate and repeated twice. The relative inhibition was calculated using the following equation: relative inhibition (%) = 100(1 – v i/v o), where v i and v o designate the reaction velocities in the presence and absence of inhibitor, respectively."}, "cathepsin L": {"biological_target": "T3, cathepsin L (Homo sapiens, UniProt P07711)", "T3 construct": "made in house; host or cells: E. coli", "T3 sequence (P07711 114-333)": "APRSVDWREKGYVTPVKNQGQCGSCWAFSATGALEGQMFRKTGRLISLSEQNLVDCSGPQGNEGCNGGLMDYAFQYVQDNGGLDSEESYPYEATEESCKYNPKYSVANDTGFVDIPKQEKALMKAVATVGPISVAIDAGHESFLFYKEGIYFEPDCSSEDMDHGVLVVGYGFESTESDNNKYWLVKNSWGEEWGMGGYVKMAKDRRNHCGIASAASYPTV", "assay": "Relative inhibition of cathepsin L", "format": "biochemical", "settings": "50 μM; substrate Z-Phe-Arg-AMC; pH 5.5", "text": "as §1, §2, §3"}}, "data": [{"smiles": "N#Cc1ccccc1.[C-]#[O+].[C-]#[O+].[C-]#[O+].[O-]n1ccccc1=S.[Re+]", "note": "[complex 4, fac-[Re(CO)3(pth)(benzonitrile)]]", "values": [{"measurement": "MIC E. coli ATCC 25922", "setting": "E. coli ATCC 25922", "result": 50, "unit": "µM"}, {"measurement": "integrity of the complex (aqua form) from UV-vis spectra", "setting": "[1]", "result": "remains intact"}, {"measurement": "log KQ quenching constant", "setting": "[2]; 0–18 μM complex, pH 7.4 (PBS), 25 °C", "result": "6.3 ± 0.1"}, {"measurement": "degree of HSA fluorescence quenching", "setting": "[2]; ∼4 equivalents of complex, λEX 295 nm, pH 7.4", "result": "~85", "unit": "%"}, {"measurement": "relative inhibition cathepsin B endopeptidase", "setting": "[3]", "result": "63.6 ± 0.8", "unit": "%"}, {"measurement": "relative inhibition cathepsin L", "setting": "cathepsin L", "result": "5.0 ± 4.8", "unit": "%"}]}]}
